# Reference: ChEMBL document CHEMBL5634080, “Synthesis, biological evaluation and docking studies of silicon incorporated diarylpyrroles as MmpL3 inhibitors: An effective strategy towards development of potent anti-tubercular agents” (Eur J Med Chem, 2023)
# Tests used:
# [1] = test system: Mycobacterium tuberculosis; test: Antitubercular activity against Mycobacterium tuberculosis H37Rv assessed as inhibition of bacterial growth incubated for 6 days by Alamar Blue based assay; type: functional; details: 144 h, time 6 day
# [2] = test system: Mycobacterium tuberculosis; test: Antitubercular activity against Mycobacterium tuberculosis H37Rv; type: functional
# [3] = Solubility of the compound at 5 mM at pH 1.2 by HPLC analysis; type: physicochemical; details: buffer
# [4] = Solubility of the compound at 5 mM at pH 2.2 by HPLC analysis; type: physicochemical; details: buffer
# [5] = Solubility of the compound at 5 mM at pH 4.5 by HPLC analysis; type: physicochemical; details: buffer
# [6] = Solubility of the compound at 5 mM at pH 7.4 by HPLC analysis; type: physicochemical; details: buffer
# [7] = Solubility of the compound at 5 mM at pH 10.2 by HPLC analysis; type: physicochemical; details: buffer
# [8] = Metabolic stability in mouse liver microsomes at 50 uM measured after 30 mins by LC-MS/MS analysis; type: ADME, Microsome; details: read-out: Stability
# [9] = Metabolic stability in human liver microsomes at 50 uM measured after 30 mins by LC-MS/MS analysis; type: ADME, Microsome; details: read-out: Stability
# [10] = Metabolic stability in human plasma at 50 uM measured after 60 mins by LC-MS/MS analysis; type: ADME, cell-free; details: read-out: Stability
# [11] = Protein binding in human plasma at 150 uM by equilibrium dialysis method; type: ADME, cell-free; details: read-out: PPB (converted)
# HEK293 = test: Cytotoxicity against HEK293 cells assessed as reduction in cell viability at >45 uM measured after 24 hrs by MTT assay; type: toxicity, cell-based; details: human, hek293, 24 h
# [12] = Selectivity index, ratio of IC50 for cytotoxicity against HEK293 cells to MIC for antitubercular activity against Mycobacterium tuberculosis H37Rv; type: toxicity, cell-based; details: human, read-out: Ratio IC50
# [13] = Selectivity index, ratio of IC50 for cytotoxicity against mouse primary astrocytes cells to MIC for antitubercular activity against Mycobacterium tuberculosis H37Rv; type: toxicity, cell-based; details: read-out: Ratio IC50
# [14] = Cytotoxicity against mouse primary astrocytes assessed as reduction in cell viability measured after 24 hrs by MTT assay; type: toxicity, cell-based, Astrocyte
smiles,measurement,setting,value
CCc1ccc(-c2cc(CN3CC[Si](C)(C)CC3)c(C)n2-c2ccc(OC)cc2)cc1,MIC,[1],0.2 µM
CCc1ccc(-n2c(C)cc(CN3CC[Si](C)(C)CC3)c2-c2ccc(OC)cc2)cc1,MIC,[1],23.1 µM
Cc1c(CN2CC[Si](C)(C)CC2)cc(-c2ccc(Cl)cc2)n1-c1ccccc1,MIC,[1],0.1 µM
CCc1ccc(-n2c(-c3ccc(OC)cc3)cc(CN3CC[Si](C)(C)CC3)c2C)cc1,MIC,[1],1.5 µM
C[Si]1(C)CCN(Cc2cc(-c3ccc(Cl)cc3)n(-c3ccc(Cl)cc3)n2)CC1,MIC,[2],0.07 µM
Cc1c(CN2CCN(C)CC2)cc(-c2ccc(Cl)cc2)n1-c1ccc(Cl)cc1,MIC,[1],1.7 µM
same,solubility at 5000 µM,[3],45.2 µM
same,solubility at 5000 µM,[4],42.2 µM
same,solubility at 5000 µM,[5],36.7 µM
same,solubility at 5000 µM,[6],26.7 µM
same,solubility at 5000 µM,[7],5.38 µM
same,"remaining at 0.5 h, 50 µM",[8],62.4%
same,"remaining at 0.5 h, 50 µM",[9],79.8%
Cc1c(CN2CC[Si](C)(C)CC2)cc(-c2ccc(Cl)cc2)n1-c1ccc(Cl)cc1,MIC,[1],0.1 µM
same,solubility at 5000 µM,[3],38.8 µM
same,solubility at 5000 µM,[4],39.1 µM
same,solubility at 5000 µM,[5],36.7 µM
same,solubility at 5000 µM,[6],4.73 µM
same,"remaining at 1 h, 50 µM",[10],99.4%
same,"remaining at 0.5 h, 50 µM",[8],86.3%
same,"remaining at 0.5 h, 50 µM",[9],56.7%
same,fraction unbound at 150 µM,[11],0.0002
same,Activity,HEK293,Non-Toxic
same,selectivity ratio,[12],> 250
same,selectivity ratio,[13],> 250
same,IC50 at 24 h,[14],> 20 µM
NNC(=O)c1ccncc1 [ISONIAZID],MIC,[1],2.2 µM
COc1ccc(-c2cc(CN3CC[Si](C)(C)CC3)c(C)n2-c2ccc(F)cc2)cc1,MIC,[1],1.5 µM
COc1ccc(-c2c(CN3CC[Si](C)(C)CC3)cc(C)n2-c2ccc(F)cc2)cc1,MIC,[1],7.4 µM
Cc1c(C(=O)NN2CCCCC2)nn(-c2ccc(Cl)cc2Cl)c1-c1ccc(Cl)cc1 [RIMONABANT],MIC,[2],54 µM
CSc1ccc(-c2cc(CN3CC[Si](C)(C)CC3)c(C)n2-c2ccc(F)cc2)cc1,MIC,[1],0.2 µM
CSc1ccc(-c2c(CN3CC[Si](C)(C)CC3)cc(C)n2-c2ccc(F)cc2)cc1,MIC,[1],3.6 µM
CCc1ccc(-n2c(-c3ccc(Cl)cc3)cc(CN3CC[Si](C)(C)CC3)c2C)cc1,MIC,[1],0.1 µM
same,solubility at 5000 µM,[3],9.86 µM
same,solubility at 5000 µM,[4],37.2 µM
same,solubility at 5000 µM,[5],32.6 µM
same,solubility at 5000 µM,[6],1.19 µM
same,solubility at 5000 µM,[7],12.9 µM
same,"remaining at 1 h, 50 µM",[10],95.7%
same,"remaining at 0.5 h, 50 µM",[8],75.5%
same,"remaining at 0.5 h, 50 µM",[9],60.8%
same,fraction unbound at 150 µM,[11],0.0002
same,Activity,HEK293,Non-Toxic
same,selectivity ratio,[12],> 250
same,selectivity ratio,[13],> 250
same,IC50 at 24 h,[14],> 20 µM
Cc1ccc(-c2cc(CN3CC[Si](C)(C)CC3)c(C)n2-c2ccc(F)cc2)cc1,MIC,[1],0.1 µM
same,solubility at 5000 µM,[3],43.7 µM
same,solubility at 5000 µM,[4],42.1 µM
same,solubility at 5000 µM,[5],42.6 µM
same,solubility at 5000 µM,[6],26.8 µM
same,solubility at 5000 µM,[7],3.13 µM
same,"remaining at 1 h, 50 µM",[10],96.9%
same,"remaining at 0.5 h, 50 µM",[8],45.1%
same,"remaining at 0.5 h, 50 µM",[9],36.4%
same,fraction unbound at 150 µM,[11],0.0009
same,Activity,HEK293,Non-Toxic
same,selectivity ratio,[12],> 250
same,selectivity ratio,[13],> 250
same,IC50 at 24 h,[14],> 20 µM
